Data: article PMC4684330, “Potentiation of Neuronal Nicotinic Receptors by 17β-Estradiol: Roles of the Carboxy-Terminal and the Amino-Terminal Extracellular Domains” (PLoS ONE, 2015)
Like-named read-outs stand apart in the source and are kept apart here.

Legend:
α4&β4 20:1 [1] = biological target: T1, α4&β4 20:1 (Homo sapiens, UniProt P43681+Q8R493, P43681:W622F); test: two-electrode voltage clamp, potentiation of ACh current, Hill fit; assay type: cell-based; settings: with ACh giving about 5-7% of maximal; pH 7.3, Ba2+ saline; allosteric potentiator; paper urges circumspection (solubility, block at high concentrations)
T1 construct: gene CHRNA4; full coding regions, cRNA 20:1 alpha:beta in Xenopus oocytes, pentamer 3alpha:2beta, mixed species

α4&β4 20:1 [2] = biological target: T2, α4&β4 20:1 (Homo sapiens, UniProt P43681+Q8R493); test: as above; assay type: cell-based; settings: with ACh giving about 5-7% of maximal; pH 7.3, Ba2+ saline; allosteric potentiator; paper urges circumspection (solubility, block at high concentrations)
T2 construct: gene CHRNA4; full coding regions, cRNA 20:1 alpha:beta in Xenopus oocytes, pentamer 3alpha:2beta, mixed species

α(2.2.4.W)&β2 = system: T3, α(2.2.4.W)&β2; test: two-electrode voltage clamp, agonist activation, Hill fit; assay type: cell-based, Mus musculus; Homo sapiens; settings: no steroid, pH 7.3, Ba2+ saline, cRNA 8:1, read-out: ACh EC50
T3 construct: gene Chrna2; one alpha polypeptide: alpha2 to start of TM4, alpha4 TM4, tail WLAGMI; with wild-type beta2, cRNA 8:1, oocytes, 3alpha:2beta
From the text: two-electrode voltage clamp, agonist activation, Hill fit on α(2.2.4.W)&β2

α(4.4.2.F)&β2 = system: T4, α(4.4.2.F)&β2; test: as above; assay type: cell-based, Homo sapiens; Mus musculus; settings: no steroid, pH 7.3, Ba2+ saline, cRNA 8:1, read-out: ACh EC50
T4 construct: gene CHRNA4; one alpha polypeptide: alpha4 to D(571)RIFL, alpha2 TM4, tail FLAGMI; with wild-type beta2, cRNA 8:1, oocytes, 3alpha:2beta
From the text: two-electrode voltage clamp, agonist activation, Hill fit on α(4.4.2.F)&β2

α(4.4.2.W)&β4 = system: T5, α(4.4.2.W)&β4; test: as above; assay type: cell-based, Homo sapiens; Mus musculus; settings: no steroid, pH 7.3, Ba2+ saline, cRNA 20:1, read-out: ACh EC50
T5 construct: gene CHRNA4; one alpha polypeptide: alpha4 to D(571)RIFL, alpha2 TM4, tail WLAGMI (W as in alpha4); cRNA 20:1, oocytes, 3alpha:2beta
From the text: two-electrode voltage clamp, agonist activation, Hill fit on α(4.4.2.W)&β4

α(2.4.4.W)&β4 = system: T6, α(2.4.4.W)&β4; test: as above; assay type: cell-based, Mus musculus; Homo sapiens; settings: no steroid, pH 7.3, Ba2+ saline, cRNA 20:1, read-out: ACh EC50
T6 construct: gene Chrna2; alpha2 N-terminal domain and alpha4 remainder are one polypeptide, tail WLAGMI; cRNA 20:1, oocytes, 3alpha:2beta
From the text: two-electrode voltage clamp, agonist activation, Hill fit on α(2.4.4.W)&β4

α4(α2DtoA)&β4 [3] = system: T7, α4(α2DtoA)&β4; test: as above; assay type: cell-based, Homo sapiens; Mus musculus; settings: no steroid, pH 7.3, Ba2+ saline, cRNA 20:1, read-out: ACh EC50
T7 construct: gene CHRNA4; cRNA 20:1, oocytes, 3alpha:2beta

α(4.4.2.F)&β2(WLAGMI) = system: T8, α(4.4.2.F)&β2(WLAGMI); test: as above; assay type: cell-based, Homo sapiens; Mus musculus; settings: no steroid, pH 7.3, Ba2+ saline, cRNA 8:1, read-out: ACh EC50
T8 construct: gene CHRNA4
From the text: two-electrode voltage clamp, agonist activation, Hill fit on α(4.4.2.F)&β2(WLAGMI)

α(4.2.2.F)&β4 = system: T9, α(4.2.2.F)&β4; test: as above; assay type: cell-based, Homo sapiens; Mus musculus; settings: no steroid, pH 7.3, Ba2+ saline, cRNA 20:1, read-out: ACh EC50
T9 construct: gene CHRNA4; alpha4 and alpha2 parts are one polypeptide: alpha4 N-terminus to V(210)IRRLP, rest alpha2 (TM1-TM3 identical), tail FLAGMI; cRNA 20:1, oocytes, 3alpha:2beta
From the text: two-electrode voltage clamp, agonist activation, Hill fit on α(4.2.2.F)&β4

α2(W)(α4DtoA)&β4 = system: T10, α2(W)(α4DtoA)&β4; test: as above; assay type: cell-based, Mus musculus; Homo sapiens; settings: no steroid, pH 7.3, Ba2+ saline, cRNA 20:1, read-out: ACh EC50
T10 construct: gene Chrna2; one alpha polypeptide: alpha2(W) carrying alpha4 MMT(57)-IVL(97); cRNA 20:1, oocytes, 3alpha:2beta
From the text: two-electrode voltage clamp, agonist activation, Hill fit on α2(W)(α4DtoA)&β4

α4(F)(α2DtoA+E)&β4 = system: T11, α4(F)(α2DtoA+E)&β4; test: as above; assay type: cell-based, Homo sapiens; Mus musculus; settings: no steroid, pH 7.3, Ba2+ saline, cRNA 20:1, read-out: ACh EC50
T11 construct: gene CHRNA4; cRNA 20:1, oocytes, 3alpha:2beta

α(2.2.4.W)&β2(WLAGMI) = system: T12, α(2.2.4.W)&β2(WLAGMI); test: as above; assay type: cell-based, Mus musculus; Homo sapiens; settings: no steroid, pH 7.3, Ba2+ saline, cRNA 8:1, read-out: ACh EC50
T12 construct: gene Chrna2
From the text: two-electrode voltage clamp, agonist activation, Hill fit on α(2.2.4.W)&β2(WLAGMI)

α(2.2.4.W)&β4 = system: T13, α(2.2.4.W)&β4; test: as above; assay type: cell-based, Mus musculus; Homo sapiens; settings: no steroid, pH 7.3, Ba2+ saline, cRNA 20:1, read-out: ACh EC50
T13 construct: gene Chrna2; alpha2 to start of TM4 and alpha4 TM4 are one polypeptide, tail WLAGMI; cRNA 20:1, oocytes, 3alpha:2beta
From the text: two-electrode voltage clamp, agonist activation, Hill fit on α(2.2.4.W)&β4

α(4.4.2.F)&β4 = system: T14, α(4.4.2.F)&β4; test: as above; assay type: cell-based, Homo sapiens; Mus musculus; settings: no steroid, pH 7.3, Ba2+ saline, cRNA 20:1, read-out: ACh EC50
T14 construct: gene CHRNA4; alpha4 and alpha2 parts are one polypeptide: alpha4 to D(571)RIFL, alpha2 TM4, tail FLAGMI; cRNA 20:1, oocytes, 3alpha:2beta
From the text: two-electrode voltage clamp, agonist activation, Hill fit on α(4.4.2.F)&β4

α4&β4 1:10 = biological target: T15, α4&β4 1:10 (Homo sapiens, UniProt P43681+Q8R493); test: as above; assay type: cell-based; settings: read-out: ACh EC50
T15 construct: gene CHRNA4; full coding regions, cRNA 1:10 alpha:beta in Xenopus oocytes

α4&β4 20:1 [4] = biological target: T16, α4&β4 20:1 (Homo sapiens, UniProt P43681+Q8R493, P43681:W622K); test: cell-based
T16 construct: gene CHRNA4
From the text: (§1) two-electrode voltage clamp, agonist activation, Hill fit on α4&β4 20:1

α4&β4 20:1 [5] = biological target: T17, α4&β4 20:1 (Homo sapiens, UniProt P43681+Q8R493, P43681:L623W/P43681:W622F); test: cell-based
T17 construct: gene CHRNA4
From the text: as §1

α4(α2DtoA)&β4 [6] = system: T7, α4(α2DtoA)&β4; test: two-electrode voltage clamp, agonist activation, Hill fit; assay type: cell-based, Homo sapiens; Mus musculus; settings: no steroid, pH 7.3, Ba2+ saline, cRNA 20:1, read-out: ACh EC50; remark: listed apart in the source

T2 sequence (P43681 27-627): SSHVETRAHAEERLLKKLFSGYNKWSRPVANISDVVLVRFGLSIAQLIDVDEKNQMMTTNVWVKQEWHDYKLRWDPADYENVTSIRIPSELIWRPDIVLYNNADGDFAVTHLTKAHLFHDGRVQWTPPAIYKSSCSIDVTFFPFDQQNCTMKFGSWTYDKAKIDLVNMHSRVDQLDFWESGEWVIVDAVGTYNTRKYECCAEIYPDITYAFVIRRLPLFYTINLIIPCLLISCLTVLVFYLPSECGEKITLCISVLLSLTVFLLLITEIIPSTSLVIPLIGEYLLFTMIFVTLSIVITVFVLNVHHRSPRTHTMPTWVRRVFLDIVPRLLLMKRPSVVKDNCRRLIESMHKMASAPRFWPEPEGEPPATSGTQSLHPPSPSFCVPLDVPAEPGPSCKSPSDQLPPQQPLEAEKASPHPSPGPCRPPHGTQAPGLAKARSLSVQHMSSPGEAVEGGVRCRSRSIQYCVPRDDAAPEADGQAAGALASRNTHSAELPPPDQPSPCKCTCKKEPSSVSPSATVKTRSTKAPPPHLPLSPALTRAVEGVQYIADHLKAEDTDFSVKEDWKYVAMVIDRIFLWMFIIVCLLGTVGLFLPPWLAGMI
T2 sequence (Q8R493 21-495): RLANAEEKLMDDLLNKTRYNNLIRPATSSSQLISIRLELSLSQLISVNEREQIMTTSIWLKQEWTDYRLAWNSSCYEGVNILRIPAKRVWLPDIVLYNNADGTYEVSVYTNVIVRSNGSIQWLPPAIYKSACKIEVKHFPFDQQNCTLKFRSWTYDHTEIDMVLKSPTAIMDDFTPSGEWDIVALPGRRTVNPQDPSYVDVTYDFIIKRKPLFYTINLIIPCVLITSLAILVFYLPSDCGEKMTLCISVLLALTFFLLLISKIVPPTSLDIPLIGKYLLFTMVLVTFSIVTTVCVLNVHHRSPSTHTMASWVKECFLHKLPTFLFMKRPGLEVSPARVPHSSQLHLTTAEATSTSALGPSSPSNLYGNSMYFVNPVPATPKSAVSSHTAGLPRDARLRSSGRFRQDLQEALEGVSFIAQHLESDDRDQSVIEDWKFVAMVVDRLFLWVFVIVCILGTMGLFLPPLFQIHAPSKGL
T15 sequence (P43681 27-627): as the sequence (P43681 27-627) above
T15 sequence (Q8R493 21-495): as the sequence (Q8R493 21-495) above
T16 sequence (P43681 27-627 W622K): as the sequence (P43681 27-627) above, with W596K counted along it
T16 sequence (Q8R493 21-495): as the sequence (Q8R493 21-495) above
T1 sequence (P43681 27-627 W622F): as the sequence (P43681 27-627) above, with W596F counted along it
T1 sequence (Q8R493 21-495): as the sequence (Q8R493 21-495) above
T17 sequence (P43681 27-627 W622F/L623W): as the sequence (P43681 27-627) above, with W596F, L597W counted along it
T17 sequence (Q8R493 21-495): as the sequence (Q8R493 21-495) above

19-norpregna-1,3,5(10)-trien-20-yne-3,17-diol, (17α)-(9CI) [17α-vinyl estradiol]
EC50 (α4&β4 20:1 [1]): 7.32 ± 0.68 µM | EC50 (α4&β4 20:1 [2]): 3.84 ± 0.27 µM

CC(=O)OCC[N+](C)(C)C [acetylcholine chloride]
EC50 (α(2.2.4.W)&β2): […] | EC50 (α(4.4.2.F)&β2): […] | EC50 (α(4.4.2.W)&β4): […] | EC50 (α(2.4.4.W)&β4): […] | EC50 (α4(α2DtoA)&β4 [3]): […] | EC50 (α(4.4.2.F)&β2(WLAGMI)): […] | EC50 (α(4.2.2.F)&β4): […] | EC50 (α2(W)(α4DtoA)&β4): […] | EC50 (α4(F)(α2DtoA+E)&β4): 16 ± 2 µM | EC50 (α(2.2.4.W)&β2(WLAGMI)): […] | EC50 (α(2.2.4.W)&β4): […] | EC50 (α(4.4.2.F)&β4): […] | EC50 (α4&β4 1:10): 14 ± 2.4 µM | EC50 (α4&β4 20:1 [4]): 14 ± 2 µM | EC50 (α4&β4 20:1 [5]): 14 ± 1 µM | EC50 (α4(α2DtoA)&β4 [6]): 73 ± 4 µM
